According to patent publication US10821115B2, “Compounds that inhibit Mcl-1 protein” (priority 2017, dated 2020):
Read-outs that look alike come from different tables or passages of the source.

Tests used:
[1] = tested on: human multiple myeloma cell line, OPM-2; test: Cell viability assay (OPM-2 10 FBS), CellTiter-Glo; format: cell-based
Summary of the method: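 3000 cells/well, RPMI 1640 + 10% FBS; serial compound dilutions, 16 h, 37 °C/5% CO2.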

[2] = target: recombinant human Mcl-1 (residues 171-327) / Bim interaction (Homo sapiens (Human), UniProt Q07820); test: biochemical; format: binding; conditions: 0.1 nM Mcl-1(171-327), 0.05 nM biotin-Bim (51-76); read-out: Mcl-1 HTRF IC50
[3] = Homo sapiens, OPM-2, 16 h, read-out: OPM-2 10% FBS IC50 IP, OPM-2 cells, 10% FBS, 16 h incubation

recombinant human Mcl-1 (residues 171-327) / Bim interaction, sequence (Q07820 171-327): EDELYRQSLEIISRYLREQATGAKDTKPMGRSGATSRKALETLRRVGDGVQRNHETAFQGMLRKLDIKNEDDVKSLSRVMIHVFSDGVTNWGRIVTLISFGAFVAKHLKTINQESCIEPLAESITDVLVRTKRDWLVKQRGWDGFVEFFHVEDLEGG

## COCCN1[C@H](C)CN(C[C@]2(OC)/C=C/C[C@H](C)[C@@H](C)S(=O)(=O)NC(=O)c3ccc4c(c3)N(C[C@@H]3CC[C@H]32)C[C@@]2(CCCc3cc(Cl)ccc32)CO4)C[C@@H]1C [Example 324, (1S,3′R,6′R,7′S,8′E,11′S,12′R)-6-chloro-7′-methoxy-7′-(((3R,5S)-4-(2-methoxyethyl)-3,5-dimethyl-1-piperazinyl)methyl)-11′,12′-dimethyl-3,4-dihydro-2H,15′H-spiro[naphthalene-1,22′-[20]oxa[13]thia[1,14]diazatetracyclo [14.7.2.0~3,6~.0~19,24~]pentacosa[8,16,18,24]tetraen]-15′-one 13′,13′-dioxide]
[1]; [3]
  IC50: 57 nM
[2]
  IC50: 0.136 nM

## CO[C@]1(CN2CCCN(C(C)C)CC2)/C=C/C[C@H](C)[C@@H](C)S(=O)(=O)NC(=O)c2ccc3c(c2)N(C[C@@H]2CC[C@H]21)C[C@@]1(CCCc2cc(Cl)ccc21)CO3 [Example 327, (1S,3′R,6′R,7′R,8′E,11′S,12′R)-6-chloro-7′-methoxy-11′,12′-dimethyl-7′-((4-(1-methylethyl)-1,4-diazepan-1-yl)methyl)-3,4-dihydro-2H,15′H-spiro[naphthalene-1,22′-[20]oxa[13]thia[1,14]diazatetracyclo [14.7.2.0~3,6~.0~19,24~]pentacosa[8,16,18,24]tetraen]-15′-one 13′,13′-dioxide]
[1]; [3]
  IC50: 174 nM
[2]
  IC50: 0.214 nM

## CO[C@]1(CN2C[C@@H](C)N(C(C)C)[C@@H](C)C2)/C=C/C[C@H](C)[C@@H](C)S(=O)(=O)NC(=O)c2ccc3c(c2)N(C[C@@H]2CC[C@H]21)C[C@@]1(CCCc2cc(Cl)ccc21)CO3 [Example 328, (1S,3′R,6′R,7′R,8′E,11′S,12′R)-6-chloro-7′-(((3R,5S)-3,5-dimethyl-4-(1-methylethyl)-1-piperazinyl)methyl)-7′-methoxy-11′,12′-dimethyl-3,4-dihydro-2H,15′H-spiro[naphthalene-1,22′-[20]oxa[13]thia[1,14]diazatetracyclo [14.7.2.0~3,6~.0~19,24~]pentacosa[8,16,18,24]tetraen]-15′-one 13′,13′-dioxide]
[1]; [3]
  IC50: 48 nM
[2]
  IC50: 0.087 nM

## CO[C@]1(CN2C[C@@H](C)N[C@@H](C)C2)/C=C/C[C@H](C)[C@@H](C)S(=O)(=O)NC(=O)c2ccc3c(c2)N(C[C@@H]2CC[C@H]21)C[C@@]1(CCCc2cc(Cl)ccc21)CO3 [Example 329, (1S,3′R,6′R,7′R,8′E,11′S,12′R)-6-chloro-7′-(((3R,5S)-3,5-dimethyl-1-piperazinyl)methyl)-7′-methoxy-11′,12′-dimethyl-3,4-dihydro-2H,15′H-spiro[naphthalene-1,22′-[20]oxa[13]thia[1,14]diazatetracyclo [14.7.2.0~3,6~.0~19,24~]pentacosa[8,16,18,24]tetraen]-15′-one 13′,13′-dioxide]
[1]; [3]
  IC50: 243 nM
[2]
  IC50: 0.137 nM

## CCN1CCN(C[C@@]2(OC)/C=C/C[C@H](C)[C@@H](C)S(=O)(=O)NC(=O)c3ccc4c(c3)N(C[C@@H]3CC[C@H]32)C[C@@]2(CCCc3cc(Cl)ccc32)CO4)CC1(C)C [Example 330, (1S,3′R,6′R,7′R,8′E,11′S,12′R)-6-chloro-7′-((4-ethyl-3,3-dimethyl-1-piperazinyl)methyl)-7′-methoxy-11′,12′-dimethyl-3,4-dihydro-2H,15′H-spiro[naphthalene-1,22′-[20]oxa[13]thia[1,14]diazatetracyclo [14.7.2.0~3,6~.0~19,24~]pentacosa[8,16,18,24]tetraen]-15′-one 13′,13′-dioxide]
[1]; [3]
  IC50: 278 nM
[2]
  IC50: 0.425 nM

## CO[C@@]1(CN2CCCN(C(C)C)CC2)/C=C/C[C@H](C)[C@@H](C)S(=O)(=O)NC(=O)c2ccc3c(c2)N(C[C@@H]2CC[C@H]21)C[C@@]1(CCCc2cc(Cl)ccc21)CO3 [Example 331]
[1]; read-out: OPM-2 10% FBS IC50 IP, OPM-2 cells, 10% FBS, 16 h incubation
  IC50: 230 nM
[2]
  IC50: 0.184 nM

## COCCOCCN1CCN(C[C@]2(OC)/C=C/C[C@H](C)[C@@H](C)S(=O)(=O)NC(=O)c3ccc4c(c3)N(C[C@@H]3CC[C@H]32)C[C@@]2(CCCc3cc(Cl)ccc32)CO4)CC1 [Example 332, (1S,3′R,6′R,7′S,8′E,11′S,12′R)-6-chloro-7′-methoxy-7′-((4-(2-(2-methoxyethoxy)ethyl)-1-piperazinyl)methyl)-11′,12′-dimethyl-3,4-dihydro-2H,15′H-spiro[naphthalene-1,22′-[20]oxa[13]thia[1,14]diazatetracyclo [14.7.2.0~3,6~.0~19,24~]pentacosa[8,16,18,24]tetraen]-15′-one 13′,13′-dioxide]
[1]; [3]
  IC50: 89 nM
[2]
  IC50: 0.096 nM

## COCC(C)(C)N1CCN(C[C@@]2(OC)/C=C/C[C@H](C)[C@@H](C)S(=O)(=O)NC(=O)c3ccc4c(c3)N(C[C@@H]3CC[C@H]32)C[C@@]2(CCCc3cc(Cl)ccc32)CO4)CC1 [Example 333, (1S,3′R,6′R,7′R,8′E,11′S,12′R)-6-chloro-7′-methoxy-7′-((4-(2-methoxy-1,1-dimethylethyl)-1-piperazinyl)methyl)-11′,12′-dimethyl-3,4-dihydro-2H,15′H-spiro[naphthalene-1,22′-[20]oxa[13]thia[1,14]diazatetracyclo [14.7.2.0~3,6~.0~19,24~]pentacosa[8,16,18,24]tetraen]-15′-one 13′,13′-dioxide]
[1]; [3]
  IC50: 82 nM
[2]
  IC50: 0.088 nM

## COCCN1CCN(C[C@]2(OC)/C=C/C[C@H](C)[C@@H](C)S(=O)(=O)NC(=O)c3ccc4c(c3)N(C[C@@H]3CC[C@H]32)C[C@@]2(CCCc3cc(Cl)ccc32)CO4)CC1(C)C [Example 334, (1S,3′R,6′R,7′S,8′E,11′S,12′R)-6-chloro-7′-methoxy-7′-((4-(2-methoxyethyl)-3,3-dimethyl-1-piperazinyl)methyl)-11′,12′-dimethyl-3,4-dihydro-2H,15′H-spiro[naphthalene-1,22′-[20]oxa[13]thia[1,14]diazatetracyclo [14.7.2.0~3,6~.0~19,24~]pentacosa[8,16,18,24]tetraen]-15′-one 13′,13′-dioxide]
[1]; [3]
  IC50: 159 nM
[2]
  IC50: 0.186 nM

## CO[C@@]1(CN2CCN(C(C)(C)C)CC2)/C=C/C[C@H](C)[C@@H](C)S(=O)(=O)NC(=O)c2ccc3c(c2)N(C[C@@H]2CC[C@H]21)C[C@@]1(CCCc2cc(Cl)ccc21)CO3 [Example 335, (1S,3′R,6′R,7′S,8′E,11′S,12′R)-7′-((4-tert-butyl-1-piperazinyl)methyl)-6-chloro-7′-methoxy-11′,12′-dimethyl-3,4-dihydro-2H,15′H-spiro[naphthalene-1,22′-[20]oxa[13]thia[1,14]diazatetracyclo [14.7.2.0~3,6~.0~19,24~]pentacosa[8,16,18,24]tetraen]-15′-one 13′,13′-dioxide]
[1]; [3]
  IC50: 133 nM
[2]
  IC50: 0.148 nM

## CO[C@]1(CN2C[C@@H](C)N(C)[C@@H](C)C2)/C=C/C[C@H](C)[C@@H](C)S(=O)(=O)NC(=O)c2ccc3c(c2)N(C[C@@H]2CC[C@H]21)C[C@@]1(CCCc2cc(Cl)ccc21)CO3 [Example 336, (1S,3′R,6′R,7′R,8′E,11′S,12′R)-6-chloro-7′-methoxy-11′,12′-dimethyl-7′-(((3R,5S)-3,4,5-trimethyl-1-piperazinyl)methyl)-3,4-dihydro-2H,15′H-spiro[naphthalene-1,22′-[20]oxa[13]thia[1,14]diazatetracyclo [14.7.2.0~3,6~.0~19,24~]pentacosa[8,16,18,24]tetraen]-15′-one 13′,13′-dioxide]
[1]; [3]
  IC50: 51 nM
[2]
  IC50: 0.085 nM
